In PubChem BioAssay (NCI):
Values joined by “and” are separate entries in the source; they are usually repeats but may differ in a detail not shown here. Equal values may be shown once.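 A five-concentration, 48-hour dose response in 96-well plates underlies each endpoint, interpolated linearly between surrounding concentrations. At the GI50, growth is halved. At the TGI there is no net growth.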

Assays:
Test in all cases: growth of human tumour cells (NCI), 48 h
A549 NSCLC = system: A549 NSCLC
HOP-92 NSCLC = system: HOP-92 NSCLC
UO-31 renal = system: UO-31 renal
ACHN renal = system: ACHN renal
SN12C renal = system: SN12C renal
MOLT-4 leukemia = system: MOLT-4 leukemia
NCI-H522 lung = system: NCI-H522 lung
DU-145 prostate = system: DU-145 prostate
NCI/ADR-RES ovarian = system: NCI/ADR-RES ovarian
HS 578T breast = system: HS 578T breast

Row | Compound | TGI (A549 NSCLC) [µM] | TGI (HOP-92 NSCLC) [µM] | TGI (UO-31 renal) [µM] | TGI (ACHN renal) [µM] | TGI (SN12C renal) | TGI (MOLT-4 leukemia) [µM] | TGI (NCI-H522 lung) [µM] | GI50 (A549 NSCLC) [µM] | GI50 (HOP-92 NSCLC) [µM] | GI50 (DU-145 prostate) [µM] | TGI (DU-145 prostate) [µM] | GI50 (UO-31 renal) [µM] | GI50 (NCI/ADR-RES ovarian) [µM] | TGI (NCI/ADR-RES ovarian) [µM] | GI50 (ACHN renal) [µM] | GI50 (SN12C renal) [µM] | GI50 (HS 578T breast) [µM] | TGI (HS 578T breast) [µM] | GI50 (MOLT-4 leukemia) [µM] | GI50 (NCI-H522 lung) [µM]
1 | O=CCCn1[nH]c(=O)ccc1=O | > 100 | > 100 | > 100 | > 100 | > 100 µM | > 100 |  |  |  |  |  |  |  |  |  |  |  |  |  | 
2 | CC1OC(n2cc(F)c(=O)[nH]c2=O)CCC1=O (stereo unspecified) | > 100 | > 100 | > 100 | > 100 | > 100 µM | > 100 | > 100 |  |  |  |  |  |  |  |  |  |  |  |  | 
3 | CCOc1ccccc1/C=N\N=C(N/N=C/c1ccccc1OCC)N/N=C/c1ccccc1OCC | > 100 | 5.63 | > 100 | > 100 | > 100 µM | > 100 |  | 2.65 | 1.24 | 2.45 | > 100 | 1.73 | 1.7 | > 100 | 1.56 | 2.32 | 2.22 | 8.39 | 4.69 | 
4 | CCCCCCOC(=O)CC1=C(C)/C(=C/c2[nH]c(-c3ccc[nH]3)cc2OC)N=C1C | 1.26 | 0.351 | 0.329 | 0.779 |  | 1.46 | 1.12 | 0.361 | 0.0332 | 0.0728 | 1.86 | 0.163 | 0.135 | 1.33 | 0.0663 |  | 0.133 | 1.17 | 0.0436 | 0.0506
5 | CN(C)CC1(C)CC/C(=C\c2ccc(Cl)cc2)C1=O (stereo unspecified) | > 100 | > 100 | > 100 | > 100 | > 100 µM | 55.8 | 33.1 |  |  |  |  |  |  |  |  |  |  |  |  | 
6 | O/N=C1/CCCC/C1=C\c1ccc(Cl)c(Cl)c1 | > 100 |  | 46.2 | 71.8 | 42.3 µM | 36.4 |  |  |  |  |  |  |  |  |  |  |  |  |  | 
7 | CC[C@]12CN3CCc4c([nH]c5ccccc45)[C@@](C(=O)OC)(c4cc5c(cc4OC)N(C)[C@H]4[C@@](O)(C(=O)OC)[C@H](OC(C)=O)[C@]6(CC)C=CCN7CC[C@]54[C@@H]76)CC(C3)[C@H]1O2 (stereo partly specified) | > 100 | > 100 | > 88.5 | > 100 | 15.4 µM and > 50 µM | > 100 |  | 0.599 | 1.29 | 0.121 |  | 1.83 | 11.6 | > 100 | 2.14 | 0.408 |  | 72.3 | 0.236 | 
8 | Cc1ccc(/C(=N/NS(=O)(=O)c2cc(C)c(Cl)cc2Cl)Sc2cc(Cl)c(C)cc2S(N)(=O)=O)cc1 | > 100 |  | > 100 | > 100 | > 100 µM | > 100 | > 100 | > 100 |  | 49.7 | > 100 | > 100 | > 100 | > 100 | 86.4 | > 100 | > 100 | > 100 | 17.9 | > 100
9 | NC1=NN(c2ccccc2)C(=O)C1C(=O)C(=O)Nc1ccccc1 (stereo unspecified) | > 100 | > 100 | > 100 | > 100 | > 100 µM | > 100 | > 100 |  |  |  |  |  |  |  |  |  |  |  |  | 
10 | CCCCCN(CCCCC)CCC[C@@H](C)[C@H]1CC[C@H]2[C@@H]3[C@H](OCCCN)C[C@@H]4C[C@H](OCCCN)CC[C@]4(C)[C@H]3C[C@H](OCCCN)[C@]12C | 21.9 | 6.45 | 51.7 | 35 | 18.8 µM | 14.4 | 12.3 | 5 | 0.68 | 11.1 | 23.6 | 14.1 | 12.1 | 37.7 | 8.8 | 4.33 |  |  | 3.85 | 2.98
11 | COc1ccc(/C=C/c2onc3c(=O)n(C)nc(-c4ccccc4)c23)cc1 | > 100 | 80.5 | > 100 | > 100 | > 100 µM | > 100 | > 100 |  |  |  |  |  |  |  |  |  |  |  |  | 
12 | C=C(C)CC(C(=O)O)c1ccc(C)cc1 (stereo unspecified) | > 100 | > 100 |  | > 100 | > 100 µM |  |  |  |  |  |  |  |  |  |  |  |  |  |  | 
13 | ClCc1ccccc1Cn1cnc2nc(Cl)nc(Cl)c21 | 13.2 |  | 2.52 | 0.609 | 2.56 µM | 4.09 | 7.17 | 5.29 |  | 0.548 | 1.33 | 1.26 | 1.07 | 3.96 | 0.209 | 1.17 | 0.331 | 1.22 | 1.49 | 2.94
14 | C[C@@H]1CC[C@@]2(C)OC(c3ccccc3)[C@H](CO)N2C1=O (stereo partly specified) | > 100 | > 100 |  | > 100 | > 100 µM |  |  |  |  |  |  |  |  |  |  |  |  |  |  | 
15 | CC(C)N(C(=O)C12C3C4C5C3C1(C(=O)O)C5C42)C(C)C (stereo unspecified) | > 100 | > 100 | > 100 | > 100 | > 100 µM | > 100 | > 100 |  |  |  |  |  |  |  |  |  |  |  |  | 
16 | CCOC(=O)C1CC(=O)C=C2CCCCC21 (stereo unspecified) | > 100 | > 100 | > 100 | > 100 | > 100 µM | > 100 | > 100 |  |  |  |  |  |  |  |  |  |  |  |  | 
17 | CC(=O)N1c2ccccc2N(C(C)=O)C1c1ccc(C2N(C(C)=O)c3ccccc3N2C(C)=O)[nH]1 | > 100 | > 100 | > 100 |  | > 100 µM | > 100 | > 100 |  |  |  |  |  |  |  |  |  |  |  |  | 
18 | COc1cccc2c1C(=O)c1c(O)c3c(c(O)c1C2=O)C[C@](O)(C(=O)CO)C[C@H]3O[C@@H]1C[C@@H](NC(=O)CCCN(C)C2(c3ccc(F)cc3)CC3CCC2C3)[C@H](O)[C@@H](C)O1 (stereo partly specified) |  | 11.1 | 14.5 | 1.4 | 14 µM | 1.9 | 1.61 |  | 3.62 | 0.893 | 1.89 | 6.23 | 8.47 | 50 | 0.736 | 5.13 | 6.78 | 20.9 | 0.382 | 0.827
19 | C=CCCn1nc(-c2ccccc2)oc1=O | > 100 | > 100 | > 100 | > 100 | > 100 µM | > 100 | > 100 |  |  |  |  |  |  |  |  |  |  |  |  | 
20 | CCN1/C(=C/C(C)=C/c2sc3ccc4ccccc4c3[n+]2CC)Sc2ccc3ccccc3c21 | 0.272 | 0.612 | 0.571 | 0.614 | 1.05 µM | 2.15 | 0.528 | 0.0271 | 0.163 | 0.142 | 0.631 | 0.181 | 0.964 | 5.61 | 0.147 | 0.189 |  |  | 0.164 | 0.121
